Where “and” joins values, the source holds several entries; their conditions need not be identical. Equal entries are not always repeated. Entries after “also recorded” stand apart in the source; their conditions may differ. Where two headings read alike, the source gives them in different places.
Tests used:
murine model of GVHD = assay type: in vivo
human NE [1] = target: T1, human NE (Homo sapiens, UniProt P08246); conditions: read-out: binding affinity KD; cited from earlier work
T1 sequence (P08246 30-267): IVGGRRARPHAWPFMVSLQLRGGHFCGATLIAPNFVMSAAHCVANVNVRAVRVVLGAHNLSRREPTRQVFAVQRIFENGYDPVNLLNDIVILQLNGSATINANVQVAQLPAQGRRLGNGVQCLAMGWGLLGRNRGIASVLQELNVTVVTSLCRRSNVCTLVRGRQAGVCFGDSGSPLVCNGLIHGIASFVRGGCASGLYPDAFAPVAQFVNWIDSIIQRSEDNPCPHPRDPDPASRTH

[2] = tested on: patients with BOS and chronic GVHD after HCT
human NE [3] = target: T1, human NE; conditions: cited from earlier work
murine NE = target: T2, murine NE (Mus musculus, UniProt Q3UP87); conditions: cited from earlier work
T2 sequence (Q3UP87 27-265): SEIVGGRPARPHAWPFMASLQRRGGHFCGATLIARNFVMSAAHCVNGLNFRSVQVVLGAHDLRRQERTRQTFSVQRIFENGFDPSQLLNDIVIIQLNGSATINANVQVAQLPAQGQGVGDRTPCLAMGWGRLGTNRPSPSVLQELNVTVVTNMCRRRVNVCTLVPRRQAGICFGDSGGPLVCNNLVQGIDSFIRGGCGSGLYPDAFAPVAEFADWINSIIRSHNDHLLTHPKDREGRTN

NE [4] = target: T3, NE (Homo sapiens, UniProt P08246); conditions: whole-blood assay; cited from earlier work
NE [5] = target: T3, NE; conditions: cell-associated assay; cited from earlier work

SMILES: Cc1c(-c2ccnn2C)cc(C(=O)NCc2ccc(S(C)(=O)=O)cn2)c(=O)n1-c1cccc(C(F)(F)F)c1 [alvelestat, N-{[5-(methanesulfonyl)pyridin-2-yl]methyl}-6-methyl-5-(1-methyl-1H-pyrazol-5-yl)-2-oxo-1-[3-(trifluoromethyl)phenyl]-1,2-dihydropyridine-3-carboxamide]
- histological scoring of GI GVHD (murine model of GVHD; 20 mg/kg diet vs T2e6, sacrificed Day 4, blinded pathologist, n=5/group, p=0.08, FIG. 4): trend toward increased pathology in the T2e6 group; also recorded: markedly less GVHD
- survival (murine model of GVHD; T-cell dose experiment, 20 mg/kg in pre-mixed diet pellets, vs 2x10^6 T cells alone, p<0.001, n=5/group, FIG. 2A, 20 mg/kg): significantly improved survival; also recorded: better survival
- toxicity in skin or liver (histology) (murine model of GVHD; mice receiving T2e6+20 mg/kg diet, Day 4): no toxicity was observed
- survival (murine model of GVHD; powder mixed with wet food, days -1 to 45, TCDBM+T2e6+20 mg/kg wet food vs TCDBM+T2e6, log-rank p=0.01, FIG. 1B): significant improvements in survival
- survival (murine model of GVHD; pre-mixed diet pellets, days -1 to 45, TCDBM+T2e6+20 mg/kg diet vs TCDBM+T2e6, log-rank p=0.001, FIG. 1A): significant improvements in survival
- dose-response in improvement in survival, body weight or GVHD score (murine model of GVHD; three doses tested: 20, 50, 200 mg/kg per day, FIG. 1C-1F): does not appear to be a dose-response
- Kd (human NE [1]): 9.5 nM
- LSS score for lung/breathing at C5 ([2]; Lee cGVHD Symptom Scale, C5 = continuation dosing period up to 6 months, individual patients #1-7): 7 and 3 (2×) and 11 and 2 and 5 and 4
- LSS score for lung/breathing at the end of treatment ([2]; Lee cGVHD Symptom Scale, individual patients #1-7): 8 and 2 and 11 and 3 and 7 and 5 and 1
- patients with progressive disease ([2]; NIH chronic GVHD consensus criteria, decline in FEV1 after pneumonia, of 7 patients): 1 patient
- grade 2 adverse event possibly related: ALT or AST elevation ([2]; human, in vivo): 3 patients
- grade 2 adverse event possibly related: increased creatinine ([2]; human, in vivo): 3 patients
- grade 2 adverse event possibly related: upper respiratory infection ([2]; human, in vivo): 3 patients
- grade 3 adverse event possibly related: gastroenteritis and vomiting requiring hospitalization ([2]; human, in vivo): 1 patient
- grade 3 adverse event possibly related: pneumonia ([2]; human, in vivo): 1 patient
- patients requiring dose interruptions ([2]; human, in vivo): Four
- patients requiring dose reduction ([2]; human, in vivo): 1
- patients who discontinued treatment prior to end of study ([2]; human, in vivo): Four
- maximum dose to which all 7 patients tolerated dose escalation ([2]; human, in vivo, po, 8 weeks): 240 mg twice daily
- End of treatment FEV1 % predicted ([2]; individual patients (patient #1-7)): 47% and 55% and 40% and 46% and 38% and 41% and 73%
- patients with improvement in Lee chronic GVHD symptom scale lung score ([2]; of 7 patients, 2 during the 6 month treatment period, 2 at end of treatment): 4 patients
- maximum tolerated dose (MTD) ([2]; oral, intra-patient escalation 60 to 240 mg twice daily, 7 patients): not reached
- improvement in FEV1 ([2]; seen in 2 of 7 patients): 9%
- Ki (human NE [3]): 9.4 nM
- pIC50 (human NE [3]): 7.9
- reversibility of inhibition (human NE [3]): rapidly reversible
- crossover potency for NE from other species (murine NE; NE from other species, including mice): good crossover potency
- pIC50 (murine NE; murine NE): 6.5
- IC50 (NE [4]): 44 nM
- pIC50 (NE [4]): 7.36
- IC50 (NE [5]): 48 nM
- pIC50 (NE [5]): 7.32
